From patent US7342016B2, “Farnesyl protein transferase inhibitors as antitumor agents” (Schering Corporation, priority 2000, dated 2008)
Where “and” joins values, the source holds several entries; their conditions need not be identical. Equal entries are not always repeated.

Experiments:
Assay in all cases: In vivo anti-tumor study, s.c. tumor in athymic nu/nu female mice, percent inhibition of tumor growth
[1] = system: HTB-177 human non small cell lung cancer cells; settings: po, x3
Description: (§1) Various tumor cells (5×10^5 to 8×10^6) were innoculated subcutaneously into the flank of 5-6 week old athymic nu/nu female mice. Three tumor cell models were used: mouse fibroblasts transformed with H-Ras; HTB-177 human non small cell lung cancer cells or LOX human melanoma cells. Animals were treated with beta cyclodextran vehicle only or compounds in vehicle twice a day (BID) or once a day (QD) for 7 days per week for 1 (×1), 2 (×2) or 3 (×3) weeks. The percent inhibition of tumor growth relative to vehicle controls were determined by tumor measurements.

LOX human melanoma cells = settings: po, BID, x1
Description: as §1

[2] = system: mouse fibroblasts transformed with H-Ras; settings: po, x2
Description: as §1

Cc1nccn1CC1=Cc2cccnc2C(N2CCN(C(=O)Nc3ccc(C#N)cc3)CC2)c2ccc(Cl)cc21 (stereo not shown) [(372)]
Average % Tumor Inhibition ([1]; 20 MPK, BID): 43% and 47% | Average % Tumor Inhibition ([1]; 40 MPK, BID): 79% | Average % Tumor Inhibition ([1]; 40 MPK, QD): 11% | Average % Tumor Inhibition ([1]; 60 MPK, BID): 87% | Average % Tumor Inhibition ([1]; 80 MPK, BID): 96% | Average % Tumor Inhibition ([1]; 120 MPK, QD): 54% | Average % Tumor Inhibition (LOX human melanoma cells; 15 MPK): 20.9% | Average % Tumor Inhibition (LOX human melanoma cells; 30 MPK): 54.8% | Average % Tumor Inhibition (LOX human melanoma cells; 60 MPK): 90.3% | Average % Tumor Inhibition ([2]; 6.6 MPK, BID): 19% | Average % Tumor Inhibition ([2]; 10 MPK, BID): 70% | Average % Tumor Inhibition ([2]; 20 MPK, BID): 59% | Average % Tumor Inhibition ([2]; 20 MPK, QD): 55% | Average % Tumor Inhibition ([2]; 40 MPK, BID): 92% | Average % Tumor Inhibition ([2]; 60 MPK, BID): 98% | Average % Tumor Inhibition ([2]; 80 MPK, QD): 91%
